# Structures can show the parent of a compound that is named as a salt. Activity calls are given as the source filed them.
# Key:
# [1] = molecular target: T1, Corticotropin-releasing factor receptor 2/Corticotropin-releasing factor-binding protein (Homo sapiens, UniProt P24387+Q13324); experiment: Dose Response confirmation of uHTS hits for small molecule antagonists of the CRF-binding protein and CRF-R2 receptor complex.; format: functional; conditions: read-out: IC50_Mean
# T1 sequence (Q13324 whole entry): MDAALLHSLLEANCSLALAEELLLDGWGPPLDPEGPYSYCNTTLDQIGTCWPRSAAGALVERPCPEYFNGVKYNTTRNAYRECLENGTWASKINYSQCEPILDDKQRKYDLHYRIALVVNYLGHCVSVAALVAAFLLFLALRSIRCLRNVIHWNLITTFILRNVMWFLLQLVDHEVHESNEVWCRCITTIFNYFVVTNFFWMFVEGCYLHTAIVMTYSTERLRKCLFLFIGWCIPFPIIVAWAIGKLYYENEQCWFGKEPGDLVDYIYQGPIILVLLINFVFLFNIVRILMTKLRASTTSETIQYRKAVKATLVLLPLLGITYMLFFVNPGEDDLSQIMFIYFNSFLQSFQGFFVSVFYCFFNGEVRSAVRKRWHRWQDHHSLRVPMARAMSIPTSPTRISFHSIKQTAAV
# T1 sequence (P24387 whole entry): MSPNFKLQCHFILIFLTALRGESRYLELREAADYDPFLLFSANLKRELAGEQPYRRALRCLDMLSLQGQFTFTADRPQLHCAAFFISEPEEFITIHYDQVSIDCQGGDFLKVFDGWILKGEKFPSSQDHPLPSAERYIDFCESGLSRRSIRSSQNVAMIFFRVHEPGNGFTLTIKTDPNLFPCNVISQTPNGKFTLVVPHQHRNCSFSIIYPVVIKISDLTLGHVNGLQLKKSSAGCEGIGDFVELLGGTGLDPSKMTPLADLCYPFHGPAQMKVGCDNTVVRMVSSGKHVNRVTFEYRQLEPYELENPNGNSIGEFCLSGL
# [2] = molecular target: T1, Corticotropin-releasing factor receptor 2/Corticotropin-releasing factor-binding protein; experiment: activators of CRF receptor 2 with binding protein – uHTS hits, confirmation (AID 602473); format: functional; conditions: read-out: EC50_Mean
# [3] = blockers of CRF-binding protein–CRF-R2 complex – cell-based, uHTS hits, 384-well, dose response (AID 651639); format: functional, Homo sapiens; conditions: read-out: IC50_Mean
# [4] = molecular target: T2, Rac GTPase-activating protein 1 (Homo sapiens, UniProt Q9H0H5); experiment: blockers of MgcRacGAP-driven Rac1 GTP hydrolysis – biochemical, ADP Hunter fluorescence, primary and confirmatory, confirmation (AID 624330); format: functional
# T2 sequence (Q9H0H5 whole entry): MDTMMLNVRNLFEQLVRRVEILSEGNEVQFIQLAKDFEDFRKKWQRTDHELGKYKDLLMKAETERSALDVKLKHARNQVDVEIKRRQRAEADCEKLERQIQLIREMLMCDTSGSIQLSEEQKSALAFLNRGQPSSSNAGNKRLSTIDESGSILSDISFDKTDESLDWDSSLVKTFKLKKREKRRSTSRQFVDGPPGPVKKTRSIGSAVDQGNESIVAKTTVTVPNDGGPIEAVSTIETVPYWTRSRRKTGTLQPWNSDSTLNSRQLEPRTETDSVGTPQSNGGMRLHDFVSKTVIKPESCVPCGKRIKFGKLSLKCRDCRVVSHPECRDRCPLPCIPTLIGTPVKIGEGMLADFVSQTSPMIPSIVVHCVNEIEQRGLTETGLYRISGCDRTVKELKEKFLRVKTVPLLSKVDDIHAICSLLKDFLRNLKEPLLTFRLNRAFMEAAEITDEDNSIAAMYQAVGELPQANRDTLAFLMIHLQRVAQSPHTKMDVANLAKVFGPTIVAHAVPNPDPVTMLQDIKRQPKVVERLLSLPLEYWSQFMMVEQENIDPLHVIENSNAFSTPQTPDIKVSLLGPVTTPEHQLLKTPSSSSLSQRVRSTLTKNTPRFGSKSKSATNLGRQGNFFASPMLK
# Mu-type opioid receptor = Mu-type opioid receptor (Homo sapiens, UniProt P35372); format: functional, cell-based;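 further: U2OS cells with beta-arrestin recruitment to OPRM1 by beta-gal complementation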
# [5] = Luminescence Cell-Based Dose Retest to Confirm Inhibitors of Cancer Stem Cells. [Related pubchem assays (depositor defined):AID2717, AID2721]; format: functional; conditions: Homo sapiens
# [6] = viability loss of HMLE_sh_eGFP cells – cell-based, luminescence, counter-screen for HMLE_sh_ECad selective toxicity project, dose response (AID 463074); format: functional, Homo sapiens;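 further: HMLE human mammary epithelial cells expressing control shRNA against eGFP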
# [7] = molecular target: T3, Methionyl-tRNA synthetase, putative (Trypanosoma brucei brucei, UniProt Q38C91); format: functional, Trypanosoma brucei brucei strain 927/4 GUTat10.1
# T3 sequence (Q38C91 whole entry): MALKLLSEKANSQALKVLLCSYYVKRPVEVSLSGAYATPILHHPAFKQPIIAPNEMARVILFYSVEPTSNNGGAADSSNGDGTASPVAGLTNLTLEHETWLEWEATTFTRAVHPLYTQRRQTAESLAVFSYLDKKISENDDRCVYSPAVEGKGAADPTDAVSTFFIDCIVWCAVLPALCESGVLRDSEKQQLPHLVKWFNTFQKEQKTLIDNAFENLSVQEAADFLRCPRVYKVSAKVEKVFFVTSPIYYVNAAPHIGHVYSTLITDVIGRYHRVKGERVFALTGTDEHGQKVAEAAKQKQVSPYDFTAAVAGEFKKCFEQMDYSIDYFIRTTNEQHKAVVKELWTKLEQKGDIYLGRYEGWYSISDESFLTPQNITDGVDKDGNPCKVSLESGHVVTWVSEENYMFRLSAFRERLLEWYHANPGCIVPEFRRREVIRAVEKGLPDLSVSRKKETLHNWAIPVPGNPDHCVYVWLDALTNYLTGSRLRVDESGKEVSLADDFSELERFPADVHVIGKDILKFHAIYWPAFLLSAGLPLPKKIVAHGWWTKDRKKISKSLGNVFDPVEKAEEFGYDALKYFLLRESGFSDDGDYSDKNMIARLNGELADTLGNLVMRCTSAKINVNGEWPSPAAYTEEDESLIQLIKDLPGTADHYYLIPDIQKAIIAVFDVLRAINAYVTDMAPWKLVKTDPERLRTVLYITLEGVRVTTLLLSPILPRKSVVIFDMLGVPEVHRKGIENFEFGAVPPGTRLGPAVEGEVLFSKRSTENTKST
# [8] = Counterscreen for inhibitors of Trypanosoma brucei methionyl tRNA synthetase (MetRS): Luminescence-based cell-based high throughput dose response assay to identify compounds that are cytotoxic to Jurkat human T lymphocyte cells.; format: functional
# [9] = molecular target: T3, Methionyl-tRNA synthetase, putative; format: functional, Trypanosoma brucei brucei strain 927/4 GUTat10.1; remark: listed apart in the source
# [10] = activation of miR-122 Renilla sensor silencing – cell-based, Huh7 psiCHECK-miR122, Renilla luciferase, cherry-picked, dose response (AID 651956); format: functional;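 further: huh7 hepatoma cells stably carrying a psiCHECK-2 miR-122 sensor plasmid; renilla luciferase signal reporting endogenous miR-122 activity after 48 h compound exposure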
# [11] = molecular target: Fructose-bisphosphate aldolase (Mycobacterium tuberculosis, UniProt P9WQA3); experiment: Fluorescence-based biochemical high throughput dose response assay for inhibitors of the fructose-bisphosphate aldolase (FBA) of M. tuberculosis.; format: functional
# [12] = molecular target: T4, Sentrin-specific protease 1 (Homo sapiens, UniProt Q9P0U3); experiment: SENP1 catalytic domain blockers, concentration series – biochemical, kinetic FRET, dose response (AID 651697); format: functional; conditions: read-out: IC50_Mean
# T4 sequence (Q9P0U3 whole entry): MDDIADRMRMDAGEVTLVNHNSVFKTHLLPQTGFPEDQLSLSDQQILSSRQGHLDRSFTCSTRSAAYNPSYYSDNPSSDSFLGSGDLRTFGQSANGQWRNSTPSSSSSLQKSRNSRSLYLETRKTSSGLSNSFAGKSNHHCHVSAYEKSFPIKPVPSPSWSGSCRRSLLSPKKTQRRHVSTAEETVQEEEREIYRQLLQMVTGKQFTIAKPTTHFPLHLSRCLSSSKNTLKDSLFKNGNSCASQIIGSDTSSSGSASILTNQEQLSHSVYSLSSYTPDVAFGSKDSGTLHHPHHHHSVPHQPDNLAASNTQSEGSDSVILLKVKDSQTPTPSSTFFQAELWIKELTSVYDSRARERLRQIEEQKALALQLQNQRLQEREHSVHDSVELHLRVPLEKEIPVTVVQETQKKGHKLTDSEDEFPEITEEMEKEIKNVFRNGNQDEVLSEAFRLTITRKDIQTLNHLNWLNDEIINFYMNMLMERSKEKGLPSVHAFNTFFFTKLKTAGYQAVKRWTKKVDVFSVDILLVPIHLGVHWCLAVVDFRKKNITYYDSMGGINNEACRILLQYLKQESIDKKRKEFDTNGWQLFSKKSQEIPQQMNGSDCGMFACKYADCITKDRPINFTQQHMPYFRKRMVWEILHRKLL
# [13] = molecular target: T4, Sentrin-specific protease 1; experiment: Dose response confirmation of small molecule inhibitors of the catalytic domain of the SUMO protease, SENP1 in a FRET assay.; format: functional; conditions: read-out: IC50_Mean
# Genome polyprotein = Genome polyprotein (dengue virus type 2, UniProt P29990); experiment: flavivirus cap methylation enzyme inhibition – biochemical, confirmation dose response, primary screen (AID 588689); format: functional
# [14] = molecular target: T5, Long-chain-fatty-acid--AMP ligase FadD28 (Mycobacterium tuberculosis, UniProt P9WQ59); experiment: Fluorescence polarization aasay to screen for inhibitors that compete for the binding of FadD28 to a bisubstrate Measured in Biochemical System Using Plate Reader - 2147-01_Inhibitor_Dose_CherryPick_Activity.; format: functional, Mycobacterium tuberculosis H37Rv
# T5 sequence (P9WQ59 whole entry): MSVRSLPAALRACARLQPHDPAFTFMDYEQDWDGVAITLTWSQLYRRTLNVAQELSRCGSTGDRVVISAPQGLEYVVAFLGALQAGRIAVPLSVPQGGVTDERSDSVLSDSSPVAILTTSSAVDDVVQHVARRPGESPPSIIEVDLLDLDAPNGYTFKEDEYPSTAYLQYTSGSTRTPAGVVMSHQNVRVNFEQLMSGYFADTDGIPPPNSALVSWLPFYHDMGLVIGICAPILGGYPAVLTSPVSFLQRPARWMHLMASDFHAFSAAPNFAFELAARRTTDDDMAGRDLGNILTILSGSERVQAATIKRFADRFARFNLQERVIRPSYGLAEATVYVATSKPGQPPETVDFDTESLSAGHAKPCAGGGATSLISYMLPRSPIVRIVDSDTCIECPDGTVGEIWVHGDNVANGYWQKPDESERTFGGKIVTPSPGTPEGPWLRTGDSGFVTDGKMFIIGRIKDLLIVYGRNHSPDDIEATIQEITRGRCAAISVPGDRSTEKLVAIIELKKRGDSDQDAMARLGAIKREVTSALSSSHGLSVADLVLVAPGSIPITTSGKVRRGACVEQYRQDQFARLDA
# HEK293 = experiment: EBV LMP1 TES2 canonical NF-kB signalling blockers – cell-based, HEK293, luciferase, cherry-pick, dose response (AID 588343); format: functional; conditions: Homo sapiens
# cells = format: functional, cell-based
# [15] = molecular target: T6, Nuclear receptor subfamily 0 group B member 1 (Homo sapiens, UniProt P51843); format: functional, cell-based;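 further: HEK293T cells transfected with SF-1 and DAX-1 plus StAR promoter luciferase reporter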
# T6 sequence (P51843 whole entry): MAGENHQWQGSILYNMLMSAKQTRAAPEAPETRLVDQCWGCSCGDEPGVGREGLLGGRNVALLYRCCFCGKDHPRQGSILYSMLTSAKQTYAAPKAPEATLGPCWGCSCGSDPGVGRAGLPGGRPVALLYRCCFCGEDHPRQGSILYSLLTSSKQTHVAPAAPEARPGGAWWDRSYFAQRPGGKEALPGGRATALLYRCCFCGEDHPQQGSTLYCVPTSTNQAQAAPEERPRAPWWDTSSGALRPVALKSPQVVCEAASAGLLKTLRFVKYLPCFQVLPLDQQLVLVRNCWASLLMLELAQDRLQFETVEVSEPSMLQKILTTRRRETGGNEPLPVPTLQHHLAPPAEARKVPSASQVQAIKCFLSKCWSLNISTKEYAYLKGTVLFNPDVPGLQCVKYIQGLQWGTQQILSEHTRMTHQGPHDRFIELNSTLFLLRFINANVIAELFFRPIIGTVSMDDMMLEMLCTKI
# Sequence of Fructose-bisphosphate aldolase (P9WQA3 whole entry, the tested form may be a part): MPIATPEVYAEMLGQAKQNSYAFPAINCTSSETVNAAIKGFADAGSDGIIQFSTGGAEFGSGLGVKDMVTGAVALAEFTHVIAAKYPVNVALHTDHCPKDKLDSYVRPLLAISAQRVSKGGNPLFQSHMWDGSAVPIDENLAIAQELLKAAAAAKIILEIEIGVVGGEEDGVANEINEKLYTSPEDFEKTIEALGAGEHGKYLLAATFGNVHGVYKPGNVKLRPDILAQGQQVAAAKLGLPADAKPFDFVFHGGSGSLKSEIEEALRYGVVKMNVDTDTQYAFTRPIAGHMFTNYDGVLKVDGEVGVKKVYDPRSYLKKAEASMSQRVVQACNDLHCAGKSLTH
# Sequence of Mu-type opioid receptor (P35372 whole entry): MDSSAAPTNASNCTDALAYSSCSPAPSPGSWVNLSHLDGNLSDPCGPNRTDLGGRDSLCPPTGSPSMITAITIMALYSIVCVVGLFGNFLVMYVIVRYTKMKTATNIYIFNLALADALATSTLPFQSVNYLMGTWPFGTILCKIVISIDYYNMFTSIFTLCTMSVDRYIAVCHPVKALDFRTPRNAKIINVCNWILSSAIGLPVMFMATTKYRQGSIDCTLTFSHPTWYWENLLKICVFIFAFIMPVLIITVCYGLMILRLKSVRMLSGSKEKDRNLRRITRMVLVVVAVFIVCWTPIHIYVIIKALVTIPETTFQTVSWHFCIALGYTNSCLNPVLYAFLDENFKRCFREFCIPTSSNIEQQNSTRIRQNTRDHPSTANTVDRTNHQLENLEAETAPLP
# Sequence of Genome polyprotein (P29990 2492-3391 limits assumed): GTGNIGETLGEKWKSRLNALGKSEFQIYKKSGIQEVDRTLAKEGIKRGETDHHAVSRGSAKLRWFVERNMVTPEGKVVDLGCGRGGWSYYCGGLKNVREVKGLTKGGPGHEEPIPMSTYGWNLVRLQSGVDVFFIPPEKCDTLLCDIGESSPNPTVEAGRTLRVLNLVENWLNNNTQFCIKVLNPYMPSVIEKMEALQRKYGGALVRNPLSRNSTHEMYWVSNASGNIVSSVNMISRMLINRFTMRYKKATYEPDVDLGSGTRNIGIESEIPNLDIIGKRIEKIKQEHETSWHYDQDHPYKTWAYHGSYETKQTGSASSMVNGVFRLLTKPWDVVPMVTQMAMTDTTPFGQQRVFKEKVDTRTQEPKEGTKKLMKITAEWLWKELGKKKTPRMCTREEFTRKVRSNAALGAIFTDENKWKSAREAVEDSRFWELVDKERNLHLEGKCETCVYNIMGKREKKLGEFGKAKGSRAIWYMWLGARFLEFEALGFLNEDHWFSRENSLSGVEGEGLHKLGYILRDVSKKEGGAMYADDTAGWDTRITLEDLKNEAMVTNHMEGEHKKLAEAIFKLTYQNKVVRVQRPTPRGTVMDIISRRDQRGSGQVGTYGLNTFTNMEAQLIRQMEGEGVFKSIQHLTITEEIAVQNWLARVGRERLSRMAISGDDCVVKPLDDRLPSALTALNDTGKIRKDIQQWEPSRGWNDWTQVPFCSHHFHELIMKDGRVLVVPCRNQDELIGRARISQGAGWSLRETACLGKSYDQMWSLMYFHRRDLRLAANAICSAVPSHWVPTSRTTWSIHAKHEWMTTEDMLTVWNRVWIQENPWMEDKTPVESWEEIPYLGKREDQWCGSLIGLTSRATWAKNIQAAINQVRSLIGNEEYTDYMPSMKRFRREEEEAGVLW
smiles,measurement,setting,value
CCOc1cc(/C=N/NC(=O)c2ccccc2OCc2ccc(F)cc2)ccc1O,IC50,[1],4.05 µM (active)
same,EC50,[2],> 53 µM (inactive)
same,IC50,[3],> 20 µM (inactive)
same,IC50,[4],78.5 µM (active)
CC(CCc1ccc(O)cc1)NCCc1ccc(O)c(O)c1 (stereo not given) [DOBUTAMINE HYDROCHLORIDE],EC50,Mu-type opioid receptor,92.5 µM (inactive)
O=C(COc1ccc(Cl)cc1Cl)N/N=C/c1ccc[nH]1,AC50,[5],1.92 µM (active)
same,AC50,[6],20.7 µM (active)
same,IC50,[7],13.2 µM (inactive)
same,IC50,[8],22.2 µM (inactive)
same,IC50,[9],22.4 µM (inactive)
CCCCN(CCCC)C(=O)CN(C)S(=O)(=O)c1ccc2c(c1)n(C)c(=O)c(=O)n2C,AC50,[10],1.4 µM (active)
Cc1c(C)c2cc(Cl)c(OCC(=O)NCCCN3CCCC3=O)cc2oc1=O,IC50,[11],3.71 µM (active)
COc1ccc(NC(=O)C2(C)Cc3c(-c4ccc(N(C)C)cc4)ccnc3O2)cc1OC (stereo not given),IC50,[11],0.731 µM (active)
CN(C)CCNc1cccc2sc3ccc(O)cc3c(=O)c12,IC50,[12],37.8 µM (inactive)
same,IC50,[13],26 µM (inactive)
C=CCOc1ccc(/C=C2\SC(=S)N(NS(=O)(=O)c3ccccc3)C2=O)cc1,IC50,Genome polyprotein,30.4 µM (active)
same,IC50,[1],3.68 µM (active)
same,EC50,[2],> 53 µM (inactive)
same,IC50,[3],6.69 µM (active)
same,AC50,[14],> 100 µM (inactive)
COc1ccccc1NC(=O)CONC(=N)CC(=O)NC1CCCCC1,IC50,[12],14.1 µM (active)
same,IC50,[13],12.5 µM (active)
Cc1ccc(NC(=O)C(=O)Nc2ccccn2)cc1,AC50,HEK293,2.59 µM (active)
same,IC50,cells,> 67.6 µM (inactive)
same,IC50,[15],> 67.6 µM (inactive)
